Data taken from article PMC4325551, “Inhibition of Rat 5α-Reductase Activity and Testosterone-Induced Sebum Synthesis in Hamster Sebocytes by an Extract of Quercus acutissima Cortex” (Evidence-based Complementary and Alternative Medicine : eCAM, 2015).

Experiments:
[1] = molecular target: T1, rat liver microsomal 5α-reductase (Rattus norvegicus, UniProt P24008); assay: 5α-reductase assay using rat liver microsomes (testosterone metabolism, HPLC and TLC); assay type: biochemical; conditions: for inhibition of 5α-reductase activity: at 10 and 100 μmol/L; for Inhibitory activity on 5α-reductase (% of control) / IC50: testosterone 3.5 μmol/L, 30 min, rat liver microsomes 40 μg/mL, HPLC; for Inhibitory activity on 5α-reductase (% of control): mean ± SEM, N = 3; for effect on 5α-reductase activity: examined at 0.1, 1, 10, and 100 μmol/L
T1 construct: The reaction was started with the addition of liver microsomes (20 μg protein); from tissue; host or cells: liver microsomes of male Sprague–Dawley rats
T1 sequence (P24008 1-259): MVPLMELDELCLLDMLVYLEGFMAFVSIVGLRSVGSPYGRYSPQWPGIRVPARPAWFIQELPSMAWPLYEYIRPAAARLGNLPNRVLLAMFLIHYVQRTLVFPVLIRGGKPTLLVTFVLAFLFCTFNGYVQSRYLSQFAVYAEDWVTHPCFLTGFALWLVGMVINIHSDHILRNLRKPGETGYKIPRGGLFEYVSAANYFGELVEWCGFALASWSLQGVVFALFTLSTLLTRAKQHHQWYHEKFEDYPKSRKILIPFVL
Description: Rat liver microsomes were prepared by the method of Lee et al.. Male Sprague–Dawley rats (body weight, 300 to 320 g; Clea Japan, Tokyo, Japan) were fasted overnight to decrease the concentration of liver glycogen and then sacrificed. The liver was excised and washed in ice-cold homogenizing buffer containing 0.32 mol/L sucrose, 1 mmol/L dithiothreitol (Wako Pure Chemical Industries), and 20 mmol/L potassium phosphate, pH 6.5. The following procedures were all carried out at 4°C. The tissue was minced with a pair of scissors and then homogenized in homogenizing buffer using a Potter-Elvehjem grinder. The homogenate was then centrifuged at 10 000 g for 10 min. The resulting pellet was washed with two pellet volumes of homogenizing buffer and centrifuged again. The supernatants from the two centrifugations were combined and further centrifuged at 105 000 g for 1 h. The resulting pellet (microsomes) was suspended in homogenizing buffer and centrifuged again. The microsomes were resuspended in homogenizing buffer. The microsome suspension was divided into small aliquots and stored at −80°C. The microsomes were diluted with 40 mmol/L potassium phosphate, pH 6.5, immediately before use. Unlike human liver, rat liver microsomes have the 5α-R1 but not the 5α-R2 isoform.
Briefly, the reaction solution was preincubated with or without a test sample in 1 mmol/L dithiothreitol, 40 mmol/L potassium phosphate, pH 6.5, 100 μmol/L NADPH (Oriental Yeast, Tokyo, Japan), and 3.5 μmol/L testosterone (Wako Pure Chemical Industries) in a final volume of 0.5 mL for 20 min at room temperature. The reaction was started with the addition of liver microsomes (20 μg protein). After incubation at 37°C for 30 min, the reaction solution was extracted with 2 mL ethyl acetate. The ethyl acetate phase (upper phase) was transferred to a tube and evaporated using a centrifugal concentrator (Tomy Seiko, Tokyo, Japan). Testosterone and the metabolites were measured by two chromatography methods, HPLC (Shimadzu, Kyoto, Japan) and TLC.
The residue was dissolved in acetonitrile and analyzed using the HPLC system. The reverse-phase HPLC analysis was performed on a C18 column (3.0 × 150 mm, GL Science, Japan) at a column oven temperature of 50°C and UV detection of 240 nm. The isocratic mobile phase of acetonitrile/water (50 : 50, v/v) was flowed at 0.4 mL/min through the column.
To detect the steroids by TLC, the residue containing steroids was taken up in ethanol and chromatographed on a TLC plate (Silica gel 60 F254, Merck, Darmstadt, Germany), using ethyl acetate-hexane (1 : 1, v/v) as the developing solvent system at room temperature. Testosterone, (Tokyo Chemical Industry Co., Tokyo, Japan) and 5α-androstane-3α,17β-diol (Sigma-Aldrich) were applied to TLC as androgen standards. The plate was exposed to 10% sulfuric acid using an atomizer and then heated on a hot plate. The fluorescent signals were visualized by irradiation of UV light at 302 nm using a ChemiDoc XRS Plus (BIO-RAD, Hercules, CA).

[2] = tested on: primary hamster sebocytes (Ha-SE); assay: cell cytotoxicity (XTT) in undifferentiated hamster sebocytes; conditions: 0.2% triton X-100, 24 h in the presence of EGF
Description: Four Figures and Two Tables
Hamster-derived sebaceous gland cells (Ha-SE) were precultured until confluent in the presence of 10 ng/mL epidermal growth factor (EGF), and further cultured with 10, 30 […]
vehicle in the presence of EGF. Twenty four hours later, cell cytotoxicity was measured […]
Fig. S2. Bioconversion of exogenous dihydrotestosterone to 5α-androstane-3,17-diol by rat liver microsomal enzymes […]
min in the presence or absence of rat liver microsomes (40 μg/mL) and the co-factors.
The metabolites were extracted with ethyl acetate after incubation, and analyzed by TLC. All androgen standards were applied at 0.1 μg/μL/spot. T.: testosterone, DHT: dihydrotestosterone, A.diol: 5α-androstane-3α,17β-diol

Compound	inhibition of 5α-reductase activity [1]	Inhibitory activity on 5α-reductase (% of control) ([1]; test sample 0.1 μmol/L)	Inhibitory activity on 5α-reductase (% of control) ([1]; test sample 1 μmol/L)	Inhibitory activity on 5α-reductase (% of control) ([1]; test sample 10 μmol/L)	Inhibitory activity on 5α-reductase (% of control) ([1]; test sample 100 μmol/L)	IC50 [1]	effect on 5α-reductase activity [1]	cytotoxicity [2]
O=C(O[C@H]1[C@@H]2OC(=O)c3cc(O)c(O)c(O)c3-c3c(cc(O)c(O)c3O)C(=O)OC[C@H]2OC(O)[C@@H]1OC(=O)c1cc(O)c(O)c(O)c1)c1cc(O)c(O)c(O)c1 (stereo partly drawn) [1-Desgalloyl eugeniin, 1-desgalloyl eugeniin]	more than 50%	4.6 ± 0.2 % of control	9.2 ± 1.6 % of control	52.5 ± 2.4 % of control	107.9 ± 0.9 % of control	12.6 µM		
COC(=O)c1cc(O)c(O)c(O)c1 [methyl gallate]							did not show any effect	
O=C(O[C@@H]1Cc2c(O)cc(O)cc2O[C@@H]1c1cc(O)c(O)c(O)c1)c1cc(O)c(O)c(O)c1 [(−)-Epigallocatechin gallate, (−)-epigallocatechin gallate]	more than 50%	3.7 ± 0.1 % of control	4.4 ± 0.4 % of control	5.3 ± 0.3 % of control	58.6 ± 2.7 % of control	10 to 100 µM		
O=C(O[C@@H]1O[C@@H]2COC(=O)c3cc(O)c(O)c(O)c3-c3c(cc(O)c(O)c3O)C(=O)O[C@H]2[C@H](OC(=O)c2cc(O)c(O)c(O)c2)[C@H]1OC(=O)c1cc(O)c(O)c(O)c1)c1cc(O)c(O)c(O)c1 [Eugeniin, eugeniin]	more than 50%	4.2 ± 1.0 % of control	13.9 ± 0.5 % of control	62.5 ± 0.6 % of control	114.6 ± 0.6 % of control	10.9 µM		
O=C(OC[C@H]1OC(OC(=O)c2cc(O)c(O)c(O)c2)[C@H](OC(=O)c2cc(O)c(O)c(O)c2)[C@@H](OC(=O)c2cc(O)c(O)c(O)c2)[C@@H]1O)c1cc(O)c(O)c(O)c1 (stereo partly drawn) [Tetragalloyl glucose, 1,2,3,6-tetra-O-galloyl glucose]	more than 50%	3.3 ± 0.5 % of control	18.7 ± 0.4 % of control	63.2 ± 3.0 % of control	102.8 ± 1.2 % of control	8.1 µM		
O=C(OC[C@H]1OC(O)[C@@](O)(COC(=O)c2cc(O)c(O)c(O)c2)[C@@H]1O)c1cc(O)c(O)c(O)c1 (stereo partly drawn) [Hamamelitannin, 2′,5-di-O-galloyl hamamelose]							did not show any effect	
triton X-100 [reference compound]								significant cytotoxicity
O=C(O[C@@H]1Cc2c(O)cc(O)cc2O[C@@H]1c1ccc(O)c(O)c1)c1cc(O)c(O)c(O)c1 [(−)-Epicatechin gallate, (−)-epicatechin gallate]	more than 50%	4.6 ± 0.2 % of control	4.9 ± 0.2 % of control	5.9 ± 0.3 % of control	69.4 ± 1.2 % of control	10 to 100 µM		
COc1cc2ccc(=O)oc2c(O[C@@H]2O[C@H](CO)[C@@H](O)[C@H](O)[C@H]2O)c1O [fraxin]							did not show any effect	
O=C(O[C@@H]1COC(=O)c2cc(O)c(O)c(O)c2-c2c(cc(O)c(O)c2O)C(=O)O[C@H]1[C@@H]1OC(=O)c2cc(O)c(O)c(O)c2-c2c(O)c(O)c(O)c3c2C(=O)O[C@H]1[C@@H]3O)c1cc(O)c(O)c(O)c1 [Casuarinin, casuarinin]	more than 50%	6.4 ± 1.4 % of control	10.8 ± 0.7 % of control	59.0 ± 2.0 % of control	110.1 ± 0.5 % of control	10.5 µM		
Oc1cc(O)c2c(c1)O[C@H](c1ccc(O)c(O)c1)[C@@H](O)C2 [(+)-catechin]							did not show any effect	
O=C(O)c1cc(O)c(O)c(O)c1 [gallic acid, Gallic acid]							did not show any effect	
O=C1OC[C@H]2OC(=O)c3cc(O)c(O)c(O)c3-c3c(O)c(O)c(O)c4c3C(=O)O[C@H]([C@H]3OC(=O)c5c-4c(O)c(O)c(O)c5[C@H]3O)[C@@H]2OC(=O)c2cc(O)c(O)c(O)c2-c2c1cc(O)c(O)c2O [Castalagin, castalagin]	more than 50%	4.9 ± 0.5 % of control	6.3 ± 1.2 % of control	70.7 ± 3.2 % of control	113.3 ± 7.6 % of control	8 µM		
Oc1cc(O)c2c(c1)O[C@@H](c1cc(O)c(O)c(O)c1)[C@H](O)C2 [(−)-gallocatechin]							did not show any effect	
O=C1c2c(O)cc(O)cc2O[C@H](c2ccc(O)c(O)c2)[C@H]1O [(+)-taxifolin]							did not show any effect	
Oc1cc(O)c2c(c1)O[C@H](c1cc(O)c(O)c(O)c1)[C@@H](O)C2 [(+)-gallocatechin, (+)-Gallocatechin]							did not show any effect	
stenophyllanin C	more than 50%	5.6 ± 0.6 % of control	4.6 ± 0.5 % of control	63.1 ± 0.4 % of control	102.3 ± 2.2 % of control	7.2 µM		
